{"source": "patent US5051419A", "about": "“Prevention or elimination of mycoplasma contamination of animal or plant cell cultures” (Dainippon Pharmaceutical Co., Ltd., priority 1988, dated 1991)", "key": {"[1]": {"system": "M. arginini G230", "assay": "Anti-mycoplasmal activity (MIC), agar-dilution method", "assay_type": "cell-based, Mycoplasma arginini", "settings": "Mycoplasmopsis arginini; agar dilution; M. arginini G230; read-out: MIC", "procedure": "The minimum growth inhibitory concentrations (MIC; μg/ml) of the test chemicals were measured by the agar-dilution method.\n(1) Preparation of a mycoplasma suspension for inoculation\nA stored frozen suspension of mycoplasma (0.2 to 0.3 ml) was inoculated in 2 to 3 ml of a preculture medium to be described later. It was serially diluted tenfold until the dilution ratio reached 10,000 times. These diluted solutions were cultivated at 37° C. for 2 to 7 days. A culture having the highest dilution ratio was selected from those cultures in which a color change of the media was noted as a result of mycoplasma growth. It was diluted to 100 times with the preculture medium to prepare a mycoplasma suspension for inoculation.\nThe following preculture media were used.\nFor other mycoplasma species, Chanock liquid medium (pH 6.8) containing 0.2% arginine was used.\n(2) Preparation of agar plates containing the test chemicals\nA 1,000 μg/ml aqueous solution of each test chemical was prepared (a difficultly-soluble chemical was dissolved by adding an equimolar amount of sodium hydroxide; the same applies hereinafter). The solution was used as a base solution and its twofold serial dilutions were prepared. The diluted solutions were pipetted on plastic petri dishes each in an amount of 1 ml. The Chanock agar medium (for Mycoplasma hyorhinis, 0.5% mucin was further added) described at page 9 of the above cited \"Procedures for Isolation and Identification of Human, Animal and Plant Mycoplasmas\" was heated and kept at 55° C. and put in an amount of 9 ml in each of the petri dishes containing the test chemicals and fully mixed with the test chemicals to prepare agar plates containing the test chemicals.\nThe mycoplasma suspension for inoculation prepared by the procedure described in section (1) was inoculated in an amount of about 3 microliters on each of the chemical-containing agar plates by means of a Cathra-replicator (3 mm pin). The plates on which Mycoplasma pneumoniae, Mycoplasma arginini, and Acholeplasma laidlawii and Mycoplasma hyorhinis were inoculated were tightly packed in a plastic bag together with the plasic petri dishes including water-immersed absorbent cotton. Mycoplasma pneumoniae was aerobically cultivated at 37° C. under highly humid conditions for 7 days; and Mycoplasma arginini and Acholeplasma laidlawii, for 2 days. The other mycoplasma species were cultivated anaerobically for 2 days by using a GasPak anaerobic system (BBL). After the cultivation, growth of mycoplasma were observed under an OLYMPUS microscope (20-100 X). The lowest concentration of the test chemical at which no growth of mycoplasma was noted is defined as MIC."}, "[2]": {"system": "A. laidlawii PG-8", "assay": "Anti-mycoplasmal activity (MIC, MMC), liquid dilution method", "assay_type": "cell-based", "settings": "Acholeplasma laidlawii, liquid dilution, A. laidlawii PG-8; for MBC: PG8, 120 h, read-out: MMC; for MIC: PG8, read-out: MIC", "procedure": "(§1) The minimum growth inhibitory concentration (MIC, μg/ml) and minimum mycoplasmacidal concentration (MMC, μg/ml) of test chemicals were measured by the liquid dilution method. The method of measuring MIC in this example differs from that used in Test Example 1.\n(§2) A 1,000 μg/ml aqueous solution of a test chemical was prepared, and diluted to 5 times with a preculture medium. The dilution (200 μg/ml) was serially diluted twofold with the same medium in a 8-well reservoir. Fifty microliters of each diluted solution was distributed in the wells of a microplate. A well to which no test chemical was added was used as a control.\n(§3) A mycoplasma suspension for inoculation prepared as in Test Example 1 was pipetted in an amount of 50 microliters to each of the wells. The microplates were sealed by a plate seal, shaken by a micromixer, and cultivated at 37° C. for 5 days. In the control to which no test chemical was added, color change of the medium by the growth of mycoplasma was observed after two days from the start of the cultivation. At this time, 3 microliters of the liquid culture was inoculated in drug-free Chanock agar medium by using a Cathra-replicator. The liquid culture and the agar medium were further cultivated at 37° C. for 3 days (anaerobically in the case of M. orale, and aerobically in the case of A. laidlawii and M. arginini). MIC and MMC were determined from the results of observation on the 5th day. MIC was defined as the lowest concentration of the test chemical at which growth of mycoplasma in the drug-containing liquid medium was not noted, and MMC, as that in the drug-free agar medium."}, "[3]": {"system": "M. arginini G-230", "assay": "Anti-mycoplasmal activity (MIC, MMC), liquid dilution method", "assay_type": "cell-based, Mycoplasma arginini", "settings": "Mycoplasmopsis arginini, liquid dilution, M. arginini G-230; for MBC: G230, 120 h, read-out: MMC; for MIC: G230, read-out: MIC", "procedure": "as §1, §2, §3"}, "[4]": {"system": "M. arginini G-230", "assay": "Activity of eliminating artificially contaminated mycoplasma from L-929 cells", "assay_type": "cell-based, Mycoplasma arginini", "procedure": "Animal cells, experimentally contaminated by mycoplasma, were cultivated for 4 days in a medium containing the test chemical and then sub-cultivated in a medium to which the test chemical was not added in order to determine whether the mycoplasma re-grew (re-contamination).\n(1) Preparation of mycoplasma-contaminated cells\nThe mycoplasmas described in Table 3 were each pre-cultivated as in Test Example 1, (1). Two milliliters of the cultures were centifuged at 1,500×g for 30 minutes to separate the mycoplasmas. The isolated mycoplasmas were suspended in 2 ml of 10%-FBS-MEM medium (Eagle's minimum essential medium supplemented with 10% fetal bovine serum and 100 U/ml of penicillin G).\nSeparately, mouse fibroblast cells L-929 was suspended in 10%-FBS-MEM medium so that their density became 2.5×10^4 /ml. Four milliliters of the suspension was put in a petri dish (diameter 6 cm) for tissue culture including two circular cover glasses (diameter 1.8 cm), and then 1 ml of the mycoplasma suspension described above was added. The mixture was incubated at 37° C. in 5% CO2 humidified atmosphere for 3 days, and then sub-cultivated twice in order to obtain mycoplasma-contaminated cells. Mycoplasma-contamination was confirmed by the highly specific DNA-fluorochromic staining method (the above cited \"Procedures for Isolation and identification of Human, Animal and Plant Mycoplasmas\", pages 95-97).\n(2) Experiment of eliminating mycoplasma contamination\nMycoplasma-contaminated L-929 cells were cultivated as described in the preceding section. A 1,000 μg/ml aqueous solution of a test chemical was prepared, and diluted to predetermined concentrations with Eagle's minimum essential medium. The diluted solutions were added to the culture medium. Two petri dishes were used for each concentration of the test chemical, and two circular cover glasses were put in one of them for examination of mycoplasma. No cover glass was put in the other petri dish, and it was used for subcultivation. Cultivation in the test chemical-containing medium was carried out for 4 days, and thereafter, the cultivation was continued for 3 weeks in a drug-free medium. Medium replacement was effected every 3 to 4 days, and subcultivation was carried out once a week. Examination for mycoplasma contamination was performed on the 4th and 7th days, and thereafter every week. The mycoplasmas were detected by the highly specific DNA-fluorochromic staining method."}}}
{"smiles": "CC1CN(c2c(F)c(N)c3c(=O)c(C(=O)O)cn(C4CC4)c3c2F)CCN1", "note": "(stereo not shown) [Compound 1]", "values": [{"measurement": "MIC", "setting": "[1]", "value": 0.1, "unit": "µg/mL"}, {"measurement": "MBC", "setting": "[2]", "value": 0.2, "unit": "µg/mL"}, {"measurement": "MIC", "setting": "[2]", "value": 0.2, "unit": "µg/mL"}, {"measurement": "MBC", "setting": "[3]", "value": 0.1, "unit": "µg/mL"}, {"measurement": "MIC", "setting": "[3]", "value": 0.1, "unit": "µg/mL"}, {"measurement": "mycoplasma elimination", "setting": "[4]; 0.2 μg/ml, day 0", "value": "+"}, {"measurement": "mycoplasma elimination", "setting": "[4]; 0.2 μg/ml, day 4", "value": "+"}, {"measurement": "mycoplasma elimination", "setting": "[4]; 0.2 μg/ml, day 7", "value": "+"}, {"measurement": "mycoplasma elimination", "setting": "[4]; 0.2 μg/ml, day 14", "value": "+"}, {"measurement": "mycoplasma elimination", "setting": "[4]; 0.2 μg/ml, day 28", "value": "+"}, {"measurement": "mycoplasma elimination", "setting": "[4]; 0.39 μg/ml, day 0", "value": "+"}, {"measurement": "mycoplasma elimination", "setting": "[4]; 0.39 μg/ml, day 4", "value": "-"}, {"measurement": "mycoplasma elimination", "setting": "[4]; 0.39 μg/ml, day 7", "value": "-"}, {"measurement": "mycoplasma elimination", "setting": "[4]; 0.39 μg/ml, day 14", "value": "-"}, {"measurement": "mycoplasma elimination", "setting": "[4]; 0.39 μg/ml, day 28", "value": "-"}]}
{"smiles": "CN(C)c1ccc(O)c2c1C[C@H]1C[C@H]3[C@H](N(C)C)C(O)=C(C(N)=O)C(=O)[C@@]3(O)C(O)=C1C2=O", "note": "[Compound 3, minocycline]", "values": [{"measurement": "MIC", "setting": "[1]", "value": 0.39, "unit": "µg/mL"}, {"measurement": "MBC", "setting": "[2]", "value": "> 100", "unit": "µg/mL"}, {"measurement": "MIC", "setting": "[2]", "value": 0.2, "unit": "µg/mL"}, {"measurement": "MBC", "setting": "[3]", "value": "> 100", "unit": "µg/mL"}, {"measurement": "MIC", "setting": "[3]", "value": 0.39, "unit": "µg/mL"}, {"measurement": "mycoplasma elimination", "setting": "[4]; 12.5 μg/ml, day 0", "value": "+"}, {"measurement": "mycoplasma elimination", "setting": "[4]; 12.5 μg/ml, day 4", "value": "-"}, {"measurement": "mycoplasma elimination", "setting": "[4]; 12.5 μg/ml, day 7", "value": "-"}, {"measurement": "mycoplasma elimination", "setting": "[4]; 12.5 μg/ml, day 14", "value": "+"}, {"measurement": "mycoplasma elimination", "setting": "[4]; 12.5 μg/ml, day 28", "value": "+"}]}
{"smiles": "NCC1CN(c2c(F)c(N)c3c(=O)c(C(=O)O)cn(C4CC4)c3c2F)CCO1", "note": "(stereo not shown) [Compound A, 5-amino-7-(2-aminomethylmorpholino)-1-cyclopropyl-6,8-difluoro-1,4-dihydro-4-oxoquinoline-3-carboxylic acid]", "values": [{"measurement": "MIC", "setting": "[1]", "value": 0.05, "unit": "µg/mL"}, {"measurement": "MBC", "setting": "[2]", "value": 0.0125, "unit": "µg/mL"}, {"measurement": "MIC", "setting": "[2]", "value": 0.0125, "unit": "µg/mL"}, {"measurement": "MBC", "setting": "[3]", "value": 0.05, "unit": "µg/mL"}, {"measurement": "MIC", "setting": "[3]", "value": 0.05, "unit": "µg/mL"}, {"measurement": "mycoplasma elimination", "setting": "[4]; 0.1 μg/ml, day 0", "value": "+"}, {"measurement": "mycoplasma elimination", "setting": "[4]; 0.1 μg/ml, day 4", "value": "+"}, {"measurement": "mycoplasma elimination", "setting": "[4]; 0.1 μg/ml, day 7", "value": "+"}, {"measurement": "mycoplasma elimination", "setting": "[4]; 0.1 μg/ml, day 14", "value": "+"}, {"measurement": "mycoplasma elimination", "setting": "[4]; 0.1 μg/ml, day 28", "value": "+"}, {"measurement": "mycoplasma elimination", "setting": "[4]; 0.2 μg/ml, day 0", "value": "+"}, {"measurement": "mycoplasma elimination", "setting": "[4]; 0.2 μg/ml, day 4", "value": "-"}, {"measurement": "mycoplasma elimination", "setting": "[4]; 0.2 μg/ml, day 7", "value": "-"}, {"measurement": "mycoplasma elimination", "setting": "[4]; 0.2 μg/ml, day 14", "value": "-"}, {"measurement": "mycoplasma elimination", "setting": "[4]; 0.2 μg/ml, day 28", "value": "-"}]}
